What was measured:
Assay type in all cases: toxicity, cell-based
[1] = tested on: HEK-293T; experiment: Incucyte cell viability with HEK293T; conditions: human, 10 µM, compound concentration 10 uM
[2] = tested on: U2OS; experiment: Incucyte cell viability with U2OS; conditions: human, 10 µM, compound concentration 10 uM
[3] = tested on: Fibroblast; experiment: Incucyte cell viability with human fibroblast; conditions: 10 µM, compound concentration 10 uM
[4] = 0 h, replicate number 1, timepoint 0 hours
[5] = 0 h, replicate number 2, timepoint 0 hours
[6] = 6 h, replicate number 1, timepoint 6 hours
[7] = 6 h, replicate number 2, timepoint 6 hours
[8] = 12 h, replicate number 1, timepoint 12 hours
[9] = 12 h, replicate number 2, timepoint 12 hours
[10] = 18 h, replicate number 1, timepoint 18 hours
[11] = 18 h, replicate number 2, timepoint 18 hours
[12] = 24 h, replicate number 1, timepoint 24 hours
[13] = 24 h, replicate number 2, timepoint 24 hours
Also: filed as whole numbers so only -1 and 0 and 1 occur.

CC(C)(Sc1ccc(CCN(CCCCC2CCCCC2)C(=O)NC2CCCCC2)cc1)C(=O)O [GW7647]
Growth Rate [1, 4]: 1 | Growth Rate [1, 5]: 0 | Growth Rate [1, 6]: 0 | Growth Rate [1, 7]: 1 | Growth Rate [1, 8]: 0 | Growth Rate [1, 9]: 1 | Growth Rate [1, 10]: 0 | Growth Rate [1, 11]: 1 | Growth Rate [1, 12]: 0 | Growth Rate [2, 4]: 0 | Growth Rate [2, 7]: 1 | Growth Rate [2, 8]: 1 | Growth Rate [2, 10]: 1 | Growth Rate [2, 12]: 1 | Growth Rate [3, 4]: 0 | Growth Rate [3, 6]: 0 | Growth Rate [3, 8]: 0 | Growth Rate [3, 10]: 1 | Growth Rate [3, 12]: 0 | Growth Rate [3, 13]: 1

Cc1oncc1C(=O)Nc1ccc(C(F)(F)F)cc1 [LEFLUNOMIDE]
Growth Rate [1, 4]: 1 | Growth Rate [1, 5]: 0 | Growth Rate [1, 6]: 0 | Growth Rate [1, 7]: 1 | Growth Rate [1, 8]: 1 | Growth Rate [1, 10]: 1 | Growth Rate [1, 11]: 0 | Growth Rate [1, 12]: 0 | Growth Rate [1, 13]: 1 | Growth Rate [2, 5]: 0 | Growth Rate [2, 7]: 1 | Growth Rate [2, 8]: 1 | Growth Rate [2, 10]: 1 | Growth Rate [2, 12]: 1 | Growth Rate [3, 4]: 0 | Growth Rate [3, 6]: 1 | Growth Rate [3, 7]: 0 | Growth Rate [3, 8]: 1 | Growth Rate [3, 9]: 0 | Growth Rate [3, 10]: 1 | Growth Rate [3, 11]: 0 | Growth Rate [3, 12]: 1 | Growth Rate [3, 13]: 0

N[C@@H](Cc1cc(I)c(Oc2ccc(O)c(I)c2)c(I)c1)C(=O)O [LIOTHYRONINE]
Growth Rate [1, 4]: 0 | Growth Rate [1, 6]: 1 | Growth Rate [1, 8]: 1 | Growth Rate [1, 9]: 0 | Growth Rate [1, 10]: 1 | Growth Rate [1, 11]: 0 | Growth Rate [1, 12]: 1 | Growth Rate [1, 13]: 0 | Growth Rate [2, 4]: 0 | Growth Rate [2, 7]: 1 | Growth Rate [2, 8]: 1 | Growth Rate [2, 10]: 1 | Growth Rate [2, 12]: 1 | Growth Rate [3, 4]: 0 | Growth Rate [3, 6]: 0 | Growth Rate [3, 8]: 0 | Growth Rate [3, 10]: 0 | Growth Rate [3, 11]: 1 | Growth Rate [3, 12]: 0 | Growth Rate [3, 13]: 1

O=C1O[C@]2(CC[C@H](C(=O)Nc3ccn(-c4ccccc4F)n3)CC2)c2cnccc21 [MK-0557]
Growth Rate [1, 4]: 0 | Growth Rate [1, 6]: 0 | Growth Rate [1, 8]: 0 | Growth Rate [1, 10]: 0 | Growth Rate [1, 12]: 0 | Growth Rate [2, 5]: 0 | Growth Rate [2, 7]: 1 | Growth Rate [2, 8]: 1 | Growth Rate [2, 10]: 1 | Growth Rate [2, 12]: 0 | Growth Rate [2, 13]: 1 | Growth Rate [3, 4]: 0 | Growth Rate [3, 6]: 0 | Growth Rate [3, 8]: 0 | Growth Rate [3, 9]: 1 | Growth Rate [3, 10]: 0 | Growth Rate [3, 11]: 1 | Growth Rate [3, 12]: 0 | Growth Rate [3, 13]: 1

C[C@@H]1CN(c2cc(-c3n[nH]c4ccc(OC5(C)CC5)cc34)ncn2)C[C@H](C)O1 [MLi-2]
Growth Rate [1, 4]: 0 | Growth Rate [1, 5]: 1 | Growth Rate [1, 6]: 0 | Growth Rate [1, 8]: 1 | Growth Rate [1, 10]: 1 | Growth Rate [1, 12]: 1 | Growth Rate [1, 13]: 0 | Growth Rate [2, 5]: 0 | Growth Rate [2, 6]: 1 | Growth Rate [2, 8]: 1 | Growth Rate [2, 10]: 1 | Growth Rate [2, 12]: 1 | Growth Rate [3, 4]: 0 | Growth Rate [3, 6]: 1 | Growth Rate [3, 7]: 0 | Growth Rate [3, 8]: 1 | Growth Rate [3, 9]: 0 | Growth Rate [3, 10]: 1 | Growth Rate [3, 11]: 0 | Growth Rate [3, 12]: 0

O=S(=O)(NC1CCC(c2cc(F)ccc2F)(S(=O)(=O)c2ccc(Cl)cc2)CC1)C(F)(F)F (centres undefined) [MRK-560]
Growth Rate [1, 4]: 0 | Growth Rate [1, 5]: 1 | Growth Rate [1, 6]: 1 | Growth Rate [1, 8]: 0 | Growth Rate [1, 10]: 0 | Growth Rate [1, 12]: 0 | Growth Rate [2, 4]: 1 | Growth Rate [2, 6]: 1 | Growth Rate [2, 7]: 0 | Growth Rate [2, 8]: 1 | Growth Rate [2, 10]: 0 | Growth Rate [2, 12]: 1 | Growth Rate [2, 13]: 0 | Growth Rate [3, 4]: 0 | Growth Rate [3, 7]: 1 | Growth Rate [3, 8]: 1 | Growth Rate [3, 9]: 0 | Growth Rate [3, 10]: 1 | Growth Rate [3, 12]: 1 | Growth Rate [3, 13]: 0

CC(=O)c1c(NS(C)(=O)=O)c2cc(-c3ccc(Cl)cc3)c(-c3ccc(Cl)cc3Cl)nc2n(C)c1=O [MRL-CB1-NC]
Growth Rate [1, 4]: 1 | Growth Rate [1, 5]: 0 | Growth Rate [1, 6]: 0 | Growth Rate [1, 8]: 0 | Growth Rate [1, 9]: 1 | Growth Rate [1, 10]: 0 | Growth Rate [1, 12]: 0 | Growth Rate [2, 4]: 0 | Growth Rate [2, 5]: 1 | Growth Rate [2, 7]: 1 | Growth Rate [2, 8]: 1 | Growth Rate [2, 10]: 1 | Growth Rate [2, 12]: 1 | Growth Rate [3, 4]: 0 | Growth Rate [3, 6]: 0 | Growth Rate [3, 8]: 0 | Growth Rate [3, 10]: 0 | Growth Rate [3, 12]: 0

Cc1ccc(-c2cnc([C@@]3(O)CC[C@H](C(=O)O)C(C)(C)C3)s2)cc1Nc1cccc(C(F)(F)F)n1 [MRL-SYKi-NC]
Growth Rate [1, 4]: 0 | Growth Rate [1, 5]: 1 | Growth Rate [1, 6]: 0 | Growth Rate [1, 8]: 1 | Growth Rate [1, 9]: 0 | Growth Rate [1, 10]: 1 | Growth Rate [1, 12]: 1 | Growth Rate [1, 13]: 0 | Growth Rate [2, 4]: 0 | Growth Rate [2, 6]: 0 | Growth Rate [2, 8]: 0 | Growth Rate [2, 9]: 1 | Growth Rate [2, 10]: 0 | Growth Rate [2, 11]: 1 | Growth Rate [2, 12]: 0 | Growth Rate [2, 13]: 1 | Growth Rate [3, 5]: 0 | Growth Rate [3, 6]: 0 | Growth Rate [3, 8]: 0 | Growth Rate [3, 10]: 0 | Growth Rate [3, 12]: 0

CO[C@@H](C)c1c(Nc2ccc([C@@H](N(C)C(=O)C3CCS(=O)(=O)CC3)C(F)(F)F)cc2)cnc2cc(Cl)nn12 [NVS-MALT1-C]
Growth Rate [1, 4]: 1 | Growth Rate [1, 6]: 0 | Growth Rate [1, 8]: 0 | Growth Rate [1, 10]: 0 | Growth Rate [1, 12]: 0 | Growth Rate [2, 4]: 0 | Growth Rate [2, 5]: 1 | Growth Rate [2, 6]: 0 | Growth Rate [2, 8]: 1 | Growth Rate [2, 10]: 0 | Growth Rate [2, 12]: 1 | Growth Rate [2, 13]: 0 | Growth Rate [3, 4]: 0 | Growth Rate [3, 6]: 0 | Growth Rate [3, 8]: 1 | Growth Rate [3, 9]: 0 | Growth Rate [3, 10]: 1 | Growth Rate [3, 12]: 1

OCCn1cc(-c2cnc3nnn(Cc4ccc5ncccc5c4)c3n2)cn1 [PF-04217903]
Growth Rate [1, 4]: 1 | Growth Rate [1, 6]: 0 | Growth Rate [1, 8]: 1 | Growth Rate [1, 10]: 1 | Growth Rate [1, 12]: 1 | Growth Rate [2, 5]: 0 | Growth Rate [2, 6]: 1 | Growth Rate [2, 7]: 0 | Growth Rate [2, 8]: 1 | Growth Rate [2, 9]: 0 | Growth Rate [2, 10]: 1 | Growth Rate [2, 11]: 0 | Growth Rate [2, 12]: 1 | Growth Rate [2, 13]: 0 | Growth Rate [3, 4]: 0 | Growth Rate [3, 6]: 1 | Growth Rate [3, 7]: 0 | Growth Rate [3, 9]: 0 | Growth Rate [3, 10]: 1 | Growth Rate [3, 11]: 0 | Growth Rate [3, 12]: 1

CCC[C@H](Oc1cc(C)c(-n2cc(C(F)(F)F)cn2)c(C)c1)c1ccc(C(=O)NCCC(=O)O)cc1 [PF-06291874]
Growth Rate [1, 4]: 1 | Growth Rate [1, 5]: 0 | Growth Rate [1, 6]: 0 | Growth Rate [1, 8]: 0 | Growth Rate [1, 10]: 0 | Growth Rate [1, 12]: 0 | Growth Rate [2, 7]: 0 | Growth Rate [2, 8]: 1 | Growth Rate [2, 10]: 0 | Growth Rate [2, 11]: 1 | Growth Rate [2, 12]: 1 | Growth Rate [3, 4]: 0 | Growth Rate [3, 6]: 1 | Growth Rate [3, 8]: 0 | Growth Rate [3, 10]: 0 | Growth Rate [3, 12]: 1

CNC[C@H](O)c1cccc(O)c1 [PHENYLEPHRINE]
Growth Rate [1, 4]: 0 | Growth Rate [1, 6]: 0 | Growth Rate [1, 8]: 0 | Growth Rate [1, 10]: 0 | Growth Rate [1, 12]: 1 | Growth Rate [1, 13]: 0 | Growth Rate [2, 5]: 0 | Growth Rate [2, 7]: 0 | Growth Rate [2, 8]: 1 | Growth Rate [2, 10]: 1 | Growth Rate [2, 12]: 1 | Growth Rate [3, 4]: 1 | Growth Rate [3, 5]: 0 | Growth Rate [3, 8]: 1 | Growth Rate [3, 11]: 1

N#Cc1c[nH]c2c(C(=O)N3CCN(CCc4ccc(F)cc4)CC3)cccc12 [PRUVANSERIN]
Growth Rate [1, 5]: 0 | Growth Rate [1, 6]: 0 | Growth Rate [1, 8]: 0 | Growth Rate [1, 10]: 0 | Growth Rate [1, 12]: 0 | Growth Rate [2, 4]: 1 | Growth Rate [2, 7]: 0 | Growth Rate [2, 8]: 1 | Growth Rate [2, 9]: 0 | Growth Rate [2, 10]: 0 | Growth Rate [2, 11]: 1 | Growth Rate [2, 12]: 0 | Growth Rate [3, 4]: 0 | Growth Rate [3, 6]: 0 | Growth Rate [3, 8]: 0 | Growth Rate [3, 10]: 0 | Growth Rate [3, 12]: 0

CN(C)C(=O)c1cc2cnc(Nc3ccc(N4CCNCC4)cn3)nc2n1C1CCCC1 [RIBOCICLIB]
Growth Rate [1, 4]: 0 | Growth Rate [1, 5]: 1 | Growth Rate [1, 6]: 1 | Growth Rate [1, 7]: 0 | Growth Rate [1, 9]: 0 | Growth Rate [1, 10]: 1 | Growth Rate [1, 11]: 0 | Growth Rate [1, 12]: 1 | Growth Rate [1, 13]: 0 | Growth Rate [2, 4]: 0 | Growth Rate [2, 6]: 0 | Growth Rate [2, 7]: 1 | Growth Rate [2, 8]: 0 | Growth Rate [2, 9]: 1 | Growth Rate [2, 10]: 0 | Growth Rate [2, 11]: 1 | Growth Rate [2, 12]: 0 | Growth Rate [2, 13]: 1 | Growth Rate [3, 4]: 0 | Growth Rate [3, 7]: 0 | Growth Rate [3, 9]: 0 | Growth Rate [3, 11]: 1 | Growth Rate [3, 12]: 1

CC[C@H](CO)Nc1nc(NCc2ccccc2)c2ncn(C(C)C)c2n1 [SELICICLIB]
Growth Rate [1, 4]: 0 | Growth Rate [1, 5]: 1 | Growth Rate [1, 7]: 0 | Growth Rate [1, 9]: 0 | Growth Rate [1, 10]: 1 | Growth Rate [1, 12]: 0 | Growth Rate [2, 4]: 1 | Growth Rate [2, 5]: 0 | Growth Rate [2, 6]: 0 | Growth Rate [2, 8]: 0 | Growth Rate [2, 9]: 1 | Growth Rate [2, 10]: 0 | Growth Rate [2, 12]: 0 | Growth Rate [3, 5]: 0 | Growth Rate [3, 6]: 0 | Growth Rate [3, 8]: 0 | Growth Rate [3, 10]: 0 | Growth Rate [3, 12]: 0
